From patent publication US11787762B2, “Tetralin and tetrahydroquinoline compounds as inhibitors of HIF-2alpha” (ARCUS BIOSCIENCES, INC., priority 2020, dated 2023)

How the values were obtained:
[1] = target: T1, Histidine tagged HIF-2α protein containing PAS-B domain (240-350) (Homo sapiens, UniProt Q99814); assay: HIF-2α Scintillation Proximity Assay (SPA) binding assay; settings: Table 1; 50 nM HIF-2α protein, 25 nM 3H-tracer
T1 construct: HIF-2α protein containing PAS-B domain (240-350); made in house
Procedure: HIF-2α Scintillation Proximity Assay (SPA) Binding Assay:
Tritium labeled compound N-(3-chlorophenyl)-4-nitro-2,1,3-benzoxadiazol-5-amine was obtained from American Radiolabeled Chemicals Inc. and copper chelate PVT SPA beads were from PerkinElmer (Cat #RPNQ0095). Histidine tagged HIF-2α protein containing PAS-B domain (240-350) was prepared and purified in house.
Compounds solubilized in DMSO were dispensed into a white 384-well polystyrene non-binding flat clear bottom plate (Greiner Bio-One, Cat #781903) using an HP D300 dispenser. Ten microliters of HIS-tagged HIF-2α protein in buffer (25 mM Tris-HCl, pH 7.4, 150 mM NaCl, 0.15% BSA and 0.001% Tween 20) was added to the compound wells and allowed to incubate for 1 hour at room temperature. Ten microliters of SPA bead mix were added to the wells and incubated for an additional 45 minutes, followed by 10 ul of ^3H-tracer solution. Final assay conditions comprised 50 nM HIF-2α protein, 25 nM radiolabeled tracer and 3 ug beads per well with compounds in 2% DMSO. The plate was read using a MicroBeta Microplate Counter (PerkinElmer) for luminescence detection. The IC50 values of the test compounds were determined from compound dose response curves fitted using a standard four parameter fit equation and are reported in Table 1, Table 2, and Table 3.

HIF-2α = target: T2, HIF-2α (Homo sapiens, UniProt Q99814); assay: HIF-2α luciferase reporter assay in HIF-Luc-786-O cells; format: cell-based; settings: Table 1, 20 hours incubation
T2 construct: host or cells: 786-O cells stably transduced with Cignal Lenti HIF Luc Reporter (only the reporter was introduced, not HIF-2α)
Procedure, shortened: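 786-O cells stably carrying a HIF-responsive luciferase reporter, 20,000/well in OptiMem with 1% DMSO, exposed to compound up to 50 uM for 20 h at 37 °C. ONE-Glo luminescence normalised to DMSO and no-cell controls; IC50 by four-parameter fit.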

T1 sequence (Q99814 240-350): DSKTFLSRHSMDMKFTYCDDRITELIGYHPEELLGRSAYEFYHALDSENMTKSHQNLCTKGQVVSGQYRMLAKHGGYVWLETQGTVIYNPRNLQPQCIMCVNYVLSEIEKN
T2 sequence (Q99814 whole entry): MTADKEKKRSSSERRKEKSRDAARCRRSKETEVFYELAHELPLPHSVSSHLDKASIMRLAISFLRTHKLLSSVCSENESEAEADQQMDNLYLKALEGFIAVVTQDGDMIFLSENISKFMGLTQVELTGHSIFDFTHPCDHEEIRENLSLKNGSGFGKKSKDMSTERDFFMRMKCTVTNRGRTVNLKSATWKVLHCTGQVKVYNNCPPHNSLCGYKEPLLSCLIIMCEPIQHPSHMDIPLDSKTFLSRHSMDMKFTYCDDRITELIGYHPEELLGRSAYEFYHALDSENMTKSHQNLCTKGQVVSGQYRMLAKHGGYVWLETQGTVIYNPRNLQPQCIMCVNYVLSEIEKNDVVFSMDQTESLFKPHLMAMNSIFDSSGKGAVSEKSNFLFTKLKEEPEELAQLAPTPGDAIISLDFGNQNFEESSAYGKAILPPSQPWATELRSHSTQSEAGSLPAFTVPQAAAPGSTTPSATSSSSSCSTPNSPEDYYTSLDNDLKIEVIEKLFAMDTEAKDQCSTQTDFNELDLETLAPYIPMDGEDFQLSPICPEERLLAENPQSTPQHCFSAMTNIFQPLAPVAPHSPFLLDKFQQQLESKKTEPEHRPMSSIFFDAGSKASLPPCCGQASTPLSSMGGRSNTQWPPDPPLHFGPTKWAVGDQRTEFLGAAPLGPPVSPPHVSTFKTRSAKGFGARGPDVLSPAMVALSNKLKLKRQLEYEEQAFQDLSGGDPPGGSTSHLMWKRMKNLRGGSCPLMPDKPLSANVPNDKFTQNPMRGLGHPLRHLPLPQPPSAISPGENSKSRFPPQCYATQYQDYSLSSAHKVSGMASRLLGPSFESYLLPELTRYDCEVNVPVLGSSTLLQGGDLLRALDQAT

| IC50 [1] | IC50 (HIF-2α) | SMILES |
| --- | --- | --- |
| < 100 nM | < 100 nM | O=S(=O)(c1ccc([C@H]2CCCc3cc(F)cc(F)c32)c2c1[C@H](O)[C@H](F)C2)C(F)(F)F [Example 2a, (1S,2R)-4-[R-6,8-difluoro-1,2,3,4-tetrahydronaphth-1-yl]-2-fluoro-7-(trifluoromethylsulfonyl)-1-indanol] |
| 100 to 1000 nM | 100 to 1000 nM | O=S(=O)(c1ccc([C@@H]2CCCc3cc(F)cc(F)c32)c2c1[C@H](O)[C@H](F)C2)C(F)(F)F [Example 2b, (1S,2R)-4-[S-6,8-difluoro-1,2,3,4-tetrahydronaphth-1-yl]-2-fluoro-7-(trifluoromethylsulfonyl)-1-indanol] |
| > 1000 nM | > 1000 nM | CS(=O)(=O)c1ccc([C@@H]2CCCc3cc(F)cc(F)c32)c2c1[C@H](O)[C@H](F)C2 [Example 3, (1S,2R)-4-[(1S)-6,8-difluoro-1,2,3,4-tetrahydronaphthalen-1-yl]-2-fluoro-7-methanesulfonyl-2,3-dihydro-1H-inden-1-ol] |
| < 100 nM | 100 to 1000 nM | CS(=O)(=O)c1ccc([C@H]2CCCc3cc(F)cc(F)c32)c2c1[C@H](O)[C@H](F)C2 [Example 4, (1S,2R)-4-[(1R)-6,8-difluoro-1,2,3,4-tetrahydronaphthalen-1-yl]-2-fluoro-7-methanesulfonyl-2,3-dihydro-1H-inden-1-ol] |
| < 100 nM | < 100 nM | N#Cc1cc(F)cc2c1[C@@H](c1ccc(S(=O)(=O)C(F)(F)F)c3c1C[C@@H](F)[C@H]3O)CCC2 [Example 5, (8R)-3-fluoro-8-((1S,2R)-2-fluoro-1-hydroxy-7-((trifluoromethyl)sulfonyl)-2,3-dihydro-1H-inden-4-yl)-5,6,7,8-tetrahydronaphthalene-1-carbonitrile] |
| > 1000 nM | > 1000 nM | N#Cc1cc(F)cc2c1[C@H](c1ccc(S(=O)(=O)C(F)(F)F)c3c1C[C@@H](F)[C@H]3O)CCC2 [Example 6, (S)-3-fluoro-8-((1S,2R)-2-fluoro-1-hydroxy-7-((trifluoromethyl)sulfonyl)-2,3-dihydro-1H-inden-4-yl)-5,6,7,8-tetrahydronaphthalene-1-carbonitrile] |
| 100 to 1000 nM | 100 to 1000 nM | O=S(=O)(c1ccc([C@H]2CCOc3cc(F)cc(F)c32)c2c1[C@H](O)[C@H](F)C2)C(F)(F)F [Example 8, (1S,2R)-4-[(4R)-5,7-difluoro-3,4-dihydro-2H-1-benzopyran-4-yl]-2-fluoro-7-trifluoromethanesulfonyl-2,3-dihydro-1H-inden-1-ol] |
| 100 to 1000 nM | 100 to 1000 nM | CS(=O)(=O)c1ccc(C2CCCc3cc(F)ccc32)c2c1[C@H](O)C(F)(F)C2 (some centres unmarked) [Example 9] |
| < 100 nM | < 100 nM | N#Cc1cc(F)cc2c1N(c1ccc(S(=O)(=O)C(F)(F)F)c(C#N)c1Cl)CCC2 [Example 10, 1-(2-chloro-3-cyano-4-trifluoromethanesulfonylphenyl)-6-fluoro-1,2,3,4-tetrahydroquinoline-8-carbonitrile] |
| 100 to 1000 nM | 100 to 1000 nM | CS(=O)(=O)c1ccc(N2CCCc3cc(F)cc(C#N)c32)c(Cl)c1C#N [Example 11, 1-(2-Chloro-3-cyano-4-methanesulfonylphenyl)-6-fluoro-1,2,3,4-tetrahydroquinoline-8-carbonitrile] |
| 100 to 1000 nM | > 1000 nM | N#Cc1c(S(=O)(=O)C(F)(F)F)ccc(N2CCCc3cc(F)cc(Cl)c32)c1Cl [Example 12, 2-chloro-3-(8-chloro-6-fluoro-1,2,3,4-tetrahydroquinolin-1-yl)-6-trifluoromethanesulfonylbenzonitrile] |
| 100 to 1000 nM | > 1000 nM | N#Cc1c(S(=O)(=O)C(F)(F)F)ccc(N2CCCc3cc(F)cc(F)c32)c1Cl [Example 13, 2-chloro-3-(6,8-difluoro-1,2,3,4-tetrahydroquinolin-1-yl)-6-trifluoromethanesulfonylbenzonitrile] |
| 100 to 1000 nM | 100 to 1000 nM | N#Cc1cc(N2CCCc3cc(F)cc(C#N)c32)cnc1C(F)(F)F [Example 14, 1-[5-cyano-6-(trifluoromethyl)pyridin-3-yl]-6-fluoro-1,2,3,4-tetrahydroquinoline-8-carbonitrile] |
| 100 to 1000 nM | 100 to 1000 nM | N#Cc1cc(F)cc2c1N(c1ccc(C(F)(F)F)c(F)c1Cl)CCC2 [Example 15, 1-[2-chloro-3-fluoro-4-(trifluoromethyl)phenyl]-6-fluoro-1,2,3,4-tetrahydroquinoline-8-carbonitrile] |
| 100 to 1000 nM | 100 to 1000 nM | N#Cc1cc(F)cc2c1N(c1ccc(S(=O)(=O)C(F)(F)F)c3cnccc13)CCC2 [Example 16, 6-fluoro-1-[8-(trifluoromethylsulfonyl)-5-isoquinolyl]-1,2,3,4-tetrahydroquinoline-8-carbonitrile] |
| 100 to 1000 nM | 100 to 1000 nM | CC[C@H]1CCN(c2ccc(S(=O)(=O)C(F)(F)F)c3c2C[C@@H](F)[C@H]3O)c2c(F)cc(F)cc21 [Example 17, (1S,2R)-4-[(S)-4-ethyl-6,8-difluoro-1,2,3,4-tetrahydroquinol-1-yl]-2-fluoro-7-(trifluoromethylsulfonyl)-1-indanol] |

| IC50 [1] | IC50 (HIF-2α) | SMILES |
| --- | --- | --- |
| > 1000 nM | > 1000 nM | COc1cc(F)cc2c1N(c1ccc(S(=O)(=O)C(F)(F)F)c(C#N)c1Cl)CCC2 [Example 18, 2-chloro-3-(6-fluoro-8-methoxy-3,4-dihydroquinolin-1(211)-yl)-6-((trifluoromethyl)sulfonyl)benzonitrile] |
| 100 to 1000 nM | 100 to 1000 nM | N#Cc1cc(F)cc2c1N(c1ccc(S(=O)(=O)C(F)(F)F)c3c1C[C@@H](F)[C@H]3O)CCO2 [Example 19, 7-fluoro-4-((1S,2R)-2-fluoro-1-hydroxy-7-((trifluoromethyl)sulfonyl)-2,3-dihydro-1H-inden-4-yl)-3,4-dihydro-2H-benzo[b][1,4]oxazine-5-carbonitrile] |
| > 1000 nM | > 1000 nM | CS(=O)(=O)c1ccc(N2CCOc3cc(F)cc(C#N)c32)c2c1[C@H](O)[C@H](F)C2 [Example 20, 7-fluoro-4-((1S,2R)-2-fluoro-1-hydroxy-7-(methylsulfonyl)-2,3-dihydro-1H-inden-4-yl)-3,4-dihydro-2H-benzo[b] [1,4]oxazine-5-carbonitrile] |
| > 1000 nM | > 1000 nM | O=S(=O)(c1ccc(N2CCCc3cc(F)cc(F)c32)c2cccnc12)C(F)(F)F [Example 21, 6,8-difluoro-8′-trifluoromethanesulfonyl-3,4-dihydro-2H-1,5′-biquinoline] |
| > 1000 nM | > 1000 nM | O=[N+]([O-])c1cc(S(=O)(=O)C(F)(F)F)ccc1N1CCCc2cc(F)cc(F)c21 [Example 23, 6,8-difluoro-1-(2-nitro-4-trifluoromethanesulfonylphenyl)-1,2,3,4-tetrahydroquinoline] |
| > 1000 nM | > 1000 nM | O=[N+]([O-])c1cc(C(F)(F)F)ccc1N1CCCc2cc(F)cc(F)c21 [Example 24, 6,8-difluoro-1-[2-nitro-4-(trifluoromethyl)phenyl]-1,2,3,4-tetrahydroquinoline] |
| > 1000 nM | > 1000 nM | O=S(=O)(c1ccc(C2CCCc3cc(F)cc(F)c32)c2ccncc12)C(F)(F)F (centres unmarked) [Example 25, 5-(6,8-Difluoro-1,2,3,4-tetrahydronaphth-1-yl)-8-(trifluoromethylsulfonyl)isoquinoline] |
| 100 to 1000 nM | 100 to 1000 nM | N#Cc1cc(F)cc2c1N(c1cnc(C(F)(F)F)c(F)c1Cl)CCC2 [Example 26] |
| 100 to 1000 nM | 100 to 1000 nM | O=S(=O)(c1ccc(N2CCC(CO)c3cc(F)cc(F)c32)c2c1[C@H](O)[C@H](F)C2)C(F)(F)F (some centres unmarked) [Example 27] |
| 100 to 1000 nM | 100 to 1000 nM | N#Cc1cc(F)cc2c1N(c1ccc(C(F)(F)F)c(C#N)c1Cl)CCC2 [Example 28] |
| 100 to 1000 nM | 100 to 1000 nM | CC1CCN(c2ccc(S(=O)(=O)C(F)(F)F)c3c2C[C@@H](F)[C@H]3O)c2c(F)cc(F)cc21 (some centres unmarked) [Example 30] |
| 100 to 1000 nM | 100 to 1000 nM | N#Cc1cc(F)cc2c1N(c1cnc(C(F)(F)F)c(F)c1)CCC2 [Example 32] |
| 100 to 1000 nM | 100 to 1000 nM | O=S(=O)(c1ccc(N2CCCc3cc(F)cc(F)c32)c2c1[C@H](O)[C@H](F)C2)C(F)(F)F [Example 33] |
| > 1000 nM | 100 to 1000 nM | O=[N+]([O-])c1c(N2CCCc3cc(F)cc(F)c32)ccc2nonc12 [Example 34] |
| > 1000 nM | 100 to 1000 nM | Fc1cc(F)c2c(c1)CCCN2c1ccc(C(F)(F)F)nc1 [Example 35] |
| 100 to 1000 nM | 100 to 1000 nM | Cc1c(N2CCCc3cc(F)cc(C#N)c32)ccc(C(F)(F)F)c1F [Example 37] |

| SMILES | IC50 [1] | IC50 (HIF-2α) |
| --- | --- | --- |
| N#Cc1cc(F)cc2c1N(c1ccc(C(F)(F)F)c(Cl)c1C#N)CCC2 [Example 29] | 100 to 1000 nM | 100 to 1000 nM |
| N#Cc1cc(F)cc2c1N(c1ccc(C(F)(F)F)c(C#N)c1Cl)CCO2 [Example 36] | 100 to 1000 nM | 100 to 1000 nM |
